Measurements as given in US11427569B2, “Benzoimidazole indolyl methanes and methods of using them to inhibit PCKS9 and PCKS9-mediated ailments” (Wisconsin Alumni Research Foundation, priority 2019, dated 2022).
“And” between values parts separate entries of the source, which are not always exact repeats. Equal entries are not always repeated.

Target: T1, PCSK9 (Homo sapiens, UniProt Q8NBP7)
T1 construct: endogenous in cells; host or cells: HepG2 (ATCC HB-8065)
Experiment: ELISA of secreted (extracellular, medium) PCSK9 in HepG2 cells
Format: cell-based
Conditions: for Activity at 1 μM (% of remaining PCSK9): 1 μM compound; for Activity at 1 μM (% of remaining PCSK9) / Activity at 10 μM (% of remaining PCSK9): HepG2 cells, DMSO = 100%; for Activity at 10 μM (% of remaining PCSK9): 10 μM compound; for IC50: dose-response curves, extracellular PCSK9, cultured HepG2 cells (FIG. 4)
Method: The human hepatoma cell line, HepG2, was cultured and maintained in low glucose Dulbecco's modified Eagle's medium (DMEM) supplemented with 10% fetal bovine serum (FBS) and 1% penicillin, streptomycin solution. (ATCC HB-8065, American Type Culture Collection, Manassas, Va.) The medium was further supplemented with 1% each of nonessential amino acids (NEAA), sodium pyruvate and L-glutamine.
Freshly cultured HepG2 cells were harvested from vacuum gas plasma-treated T75 cell culture flasks and plated onto vacuum gas plasma-treated clear 12 or 96 well plates (Fisher Scientific, Waltham, Mass. catalog nos. 353072 and 353043, respectively) at 70% confluent in 1000 μl/well or 200 μl/well of growth medium respectively. Cell plates were incubated overnight at 37° C. and 5% CO2 prior to compound treatment. For screening experiments, compounds at an initial concentration of 20 mM in 100% DMSO were diluted to different concentrations in growth medium.
For the generation of dose-response curves, compounds at an initial concentration of 20 mM in 100% DMSO were diluted to 30 μM in growth medium. The 30 μM solutions were then serially diluted 10-fold to achieve final concentration of 30 μM, 3 μM, 0.3 μM, 0.03 μM, and 0.003 μM in assay medium. Growth medium was aspirated from the plated cells and medium containing compound was added to the appropriate well. Cells were allowed to incubate for 24 h or 48 h at 37° C. and 5% CO2. Medium was collected from cells and centrifuged at 14,000 rpm for five min. The upper 50% of spun medium was collected and frozen for later analysis. The remaining cells were washed twice with 1000 μl/well or 200 μl/well cold phosphate buffered saline (PBS) at pH 7.4 and placed on ice. Cells were treated with 100 μl/well or 60 μl/well of lysis buffer comprised of 50 mM Tris, pH 8; 1% NP-40; 150 mM NaCl; 1 mM EDTA (purchased from Cell Signaling Technology, Inc., Danvers, Mass., catalog no. 9803) containing 1 mM phenylmethane sulfonyl fluoride (PMSF) and Roche protease inhibitor cocktail (available from Sigma-Aldrich, St. Louis, Mo.). Cells were allowed to incubate in lysis buffer on ice for 30 min. Cells were then collected and frozen overnight. Cells were centrifuged the next day at 14,000 rpm for 15 min. The supernatant was collected and analyzed for total protein or PCSK9 concentration.
Inhibition of secreted PCSK9 was measured in human hepatocellular carcinoma (HepG2) cells using a PCSK9 Quantikine®-brand ELISA kit purchased from R&D Systems, a wholly owned subsidiary of Bio-Techne Corporation, Minneapolis, Minn. (“Human Proprotein Convertase 9/PCSK9 Quantikine® ELISA Kit,” catalog #DPC900). The protocol provided in the kit was followed. Briefly, PCSK9 standards were prepared according to the instructions provided with the kit at final concentrations of 40 ng/mL, 20 ng/mL, 10 ng/mL, 5 ng/mL, 2.5 ng/mL, 1.25 ng/mL, 0.625 ng/mL and 0 ng/mL. The ELISA was conducted with the provided capture antibody-coated 96-well plate. Assay diluent was added to all relevant wells at a volume of 100 μL. 50 μL of sample (medium or cell lysate) or PCSK9 standard (in duplicate) was then added to the appropriate well. The plate was allowed to incubate for 2 h at room temperature. All wells were aspirated and washed four times with 300 μl of wash buffer. After washing, 200 μL of anti-PCSK9-HRP conjugate was added to all wells and the plate was allowed to incubate at room temperature for 2 h. After incubation all wells were aspirated and washed again four times with 300 μL of washing buffer.
After washing was completed, 200 μL of freshly prepared colorimetric reagent was added to all wells and the plate was incubated at room temperature in the dark for 30 min. After this final incubation a stop solution of 1N sulfuric acid was added to all wells, at which point absorbance was measured using a Tecan Infinite M1000 microplate reader at a wavelength of 450 nm (background absorbance was corrected by subtracting the absorbance measured at 540 nm). […]

T1 sequence (Q8NBP7 153-692): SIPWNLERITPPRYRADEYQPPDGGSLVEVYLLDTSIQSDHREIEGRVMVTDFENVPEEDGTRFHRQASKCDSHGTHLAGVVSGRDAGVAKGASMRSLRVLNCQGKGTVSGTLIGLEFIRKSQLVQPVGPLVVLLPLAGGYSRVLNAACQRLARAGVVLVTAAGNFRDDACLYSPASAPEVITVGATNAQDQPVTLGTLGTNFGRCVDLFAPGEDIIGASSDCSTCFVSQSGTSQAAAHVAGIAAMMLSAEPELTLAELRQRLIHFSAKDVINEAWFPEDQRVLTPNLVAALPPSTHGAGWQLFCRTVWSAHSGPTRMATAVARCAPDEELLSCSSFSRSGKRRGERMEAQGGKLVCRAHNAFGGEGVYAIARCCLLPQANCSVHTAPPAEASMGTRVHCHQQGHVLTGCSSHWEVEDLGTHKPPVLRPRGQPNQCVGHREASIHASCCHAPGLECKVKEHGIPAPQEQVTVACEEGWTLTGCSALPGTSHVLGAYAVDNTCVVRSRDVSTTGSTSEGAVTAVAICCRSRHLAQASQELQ

COc1ccc2cc3[n+](cc2c1OC)CCc1cc2c(cc1-3)OCO2 [BBR, berberine, reference compound]
Activity at 1 μM (% of remaining PCSK9): 88% and 69% | Activity at 10 μM (% of remaining PCSK9): 54% and 51%

Fc1ccc2[nH]c(Cc3c[nH]c4c(F)cccc34)nc2c1 [HX81]
Activity at 1 μM (% of remaining PCSK9): 46% and 40%

Fc1ccc2nc(Cc3c[nH]c4c(F)cccc34)n(Cc3ccccc3)c2c1 [HX178]
Activity at 1 μM (% of remaining PCSK9): 75% | Activity at 10 μM (% of remaining PCSK9): 31%

Fc1ccc2nc(Cc3c[nH]c4c(F)cccc34)n(CCc3ccccc3)c2c1 [HX179]
Activity at 1 μM (% of remaining PCSK9): 62% | Activity at 10 μM (% of remaining PCSK9): 48%

Fc1ccc2nc(Cc3c[nH]c4c(F)cccc34)n(Cc3ccncc3)c2c1 [HX181]
Activity at 1 μM (% of remaining PCSK9): 60% | Activity at 10 μM (% of remaining PCSK9): 33%

Fc1ccc2nc(Cc3c[nH]c4c(F)cccc34)n(Cc3cccnc3)c2c1 [HX182]
Activity at 1 μM (% of remaining PCSK9): 86% | Activity at 10 μM (% of remaining PCSK9): 89%

OCCn1c(Cc2c[nH]c3c(F)cccc23)nc2ccc(F)cc21 [HX183]
Activity at 1 μM (% of remaining PCSK9): 70% | Activity at 10 μM (% of remaining PCSK9): 27%

Cn1c(Cc2c[nH]c3c(F)cccc23)nc2ccc(F)cc21 [HX184]
Activity at 1 μM (% of remaining PCSK9): 34% | Activity at 10 μM (% of remaining PCSK9): 10%

CC(C)Cn1c(Cc2c[nH]c3c(F)cccc23)nc2ccc(F)cc21 [HX185]
Activity at 1 μM (% of remaining PCSK9): 65% | Activity at 10 μM (% of remaining PCSK9): 42%

CC(C)(C)Cn1c(Cc2c[nH]c3c(F)cccc23)nc2ccc(F)cc21 [HX186]
Activity at 1 μM (% of remaining PCSK9): 84% | Activity at 10 μM (% of remaining PCSK9): 73%

[2H]C([2H])(c1nc2cc(F)ccc2[nH]1)c1c[nH]c2c(F)cccc12 [HX212]
Activity at 1 μM (% of remaining PCSK9): 45% | Activity at 10 μM (% of remaining PCSK9): 25%

O=C(c1nc2ccc(F)cc2[nH]1)c1c[nH]c2c(F)cccc12 [HX235]
Activity at 1 μM (% of remaining PCSK9): 28% | Activity at 10 μM (% of remaining PCSK9): 26% | IC50: 0.5 nM

O=C(c1cc2cc(F)ccc2[nH]1)c1c[nH]c2c(F)cccc12 [HX240]
Activity at 1 μM (% of remaining PCSK9): 25% | Activity at 10 μM (% of remaining PCSK9): 15% | IC50: 13 nM

O=C(c1cc2ccccc2[nH]1)c1c[nH]c2ccccc12 [HX257]
Activity at 1 μM (% of remaining PCSK9): 25% | Activity at 10 μM (% of remaining PCSK9): 13%

O=C(c1cc2ccccc2[nH]1)c1c[nH]c2c(F)cccc12 [HX258]
Activity at 1 μM (% of remaining PCSK9): 20% | Activity at 10 μM (% of remaining PCSK9): 14%

O=C(c1cc2cc(F)ccc2[nH]1)c1c[nH]c2ccccc12 [HX259]
Activity at 1 μM (% of remaining PCSK9): 28% | Activity at 10 μM (% of remaining PCSK9): 13%

Cn1c(C(=O)c2c[nH]c3c(F)cccc23)nc2ccc(F)cc21 [HX261]
Activity at 1 μM (% of remaining PCSK9): 21% | Activity at 10 μM (% of remaining PCSK9): 20%

O=C(c1nc2ccccc2[nH]1)c1c[nH]c2ccccc12 [HX262]
Activity at 1 μM (% of remaining PCSK9): 30% | Activity at 10 μM (% of remaining PCSK9): 20%

O=C(c1nc2ccccc2[nH]1)c1c[nH]c2c(F)cccc12 [MF025]
Activity at 1 μM (% of remaining PCSK9): 27% | Activity at 10 μM (% of remaining PCSK9): 21%

Fc1ccc2[nH]c(Cc3c[nH]c4c(F)cccc34)cc2c1 [compound 9577]
Activity at 1 μM (% of remaining PCSK9): 59% and 50% | Activity at 10 μM (% of remaining PCSK9): 17% and 13% | IC50: 44 nM
